Test results published in PMC11357992, “Non-invasive mapping of systemic neutrophil dynamics upon cardiovascular injury” (Nature Cardiovascular Research, 2023).
Several values for one entry are separate records, joined by “and”; a condition that tells them apart may be missing. Equal entries are not always repeated. Where no end group is shown, it is not given here. Side-chain parts run from the residue outwards. rhodamine‑labelled PEGylated perfluoro‑15‑crown‑5 ether nanoemulsion = not defined here; carboxyfluorescein = N-terminal fluorescence label (CF)

Columns and labels:
murine neutrophils = assay: 19F MRI of isolated murine neutrophils incubated with mNPPFCs/ConPFCs; type: cell-based, mouse; settings: 4 × 10^6 bone marrow neutrophils incubated 3 h at 37 °C with 50 µl PFCs; individual experiments
Description: A total of 4 × 10^6 neutrophils isolated from bone marrow with the EasySep Mouse Neutrophil Enrichment Kit (Stemcell Technologies) were resuspended in 1 ml DMEM and incubated for 3 h with 50 µl ^mNPPFCs or ^ConPFCs at 37 °C. Afterward, cells were washed three times with PBS, fixed with PFA, pelleted by centrifugation and analyzed by ^1H/^19F MRI.
Extended Data Fig. 2 Specific targeting of neutrophils by ^mNPPFCs. a, Flow cytometric analysis of murine blood leukocytes incubated with ^mNPPFCs over 80 min illustrating their predominant uptake by neutrophils (red) as compared to monocytes (blue) and lymphocytes (gray). b, To further validate specificity, binding of CD177 mAb as well as incorporation of ^mNPPFCs under basal and LPS-stimulated conditions were determined. Almost no binding/uptake into classical or non-classical monocytes as well as macrophages or eosinophils could be detected. […] Subsequently, cells were analyzed by ^1H/^19F MRI. Left: ^1H/^19F MRI of centrifugation tubes with neutrophils treated with ^mNPPFCs (lower panel) or ^ConPFCs (upper panel). […] Quantification of ^19F signals (4th column) clearly indicate substantial stronger ^19F uptake in ^mNPPFC-treated neutrophils (red) compared to cells incubated with ^ConPFCs (gray); a.u. = arbitrary units. […]

infarcted heart = assay: Cardiac 19F MRI signal after MI (in vivo, time course, correlation with LGE); design: species or system mouse
Description: For labeling of neutrophils before MI, mice were anesthetized (1.5% isoflurane) and 1 mmol per kg BW PFCs were injected intravenously via the tail vein on 3 consecutive days. Induction of MI was essentially carried out as previously described. For inhibiting the egress of neutrophils from the bone marrow in a subset of experiments, a cocktail of neutralizing antibodies was injected i.p. 1 h before and 4 h after MI (CXCL1, CXCL2, G-CSF, GM-CSF, 50 µg each, Thermo Fisher). To generate neutropenic mice, 48 and 24 h before MI, 500 µg of the Ly6G-depletion antibody (BioXcell, clone 1A8) was injected i.p. in independent experiments.
All experiments were performed with a vertical 9.4 T Bruker AVANCE^III Wide Bore NMR spectrometer (Bruker) driven by ParaVision 5.1 and operating at frequencies of 400.21 MHz for ^1H measurements and 376.54 MHz for ^19F measurements using a Bruker microimaging unit, Micro2.5, with actively shielded gradient sets (1.5 T m^−1). Data were acquired using a 25-mm quadrature ^19F resonator with one channel tunable to both ^1H and ^19F. Mice were anesthetized with 1.5% isoflurane and kept at 37 °C. After acquisition of morphological ^1H images, the resonator was tuned to ^19F, and anatomically matching ^19F images were recorded essentially as described previously.
Images of mouse hearts were acquired in short-axis orientation using a retrospectively triggered fast low-angle shot cine sequence (IntragateFLASH, Bruker) as described previously. Thereafter, hearts were excised, washed and fixed with PFA for 3D high-resolution post-mortem MRI: ^1H FISP, TR = 4 ms, FOV = 1.00 × 1.00 × 1.00 cm³, matrix = 128 × 64 × 128, tAcq 151 min; ^19F RARE, TR = 2,500 ms, FOV = 1.00 × 1.00 × 1.00 cm³, matrix = 32 × 32 × 32, tAcq = 10 h.

[1] = tested on: neutrophils, monocytes and lymphocytes from STEMI blood samples; assay: Uptake of hNPPFCs/ConPFCs by immune cells from patients with STEMI, flow cytometry; type: cell-based, human
Description: In total, blood samples from 17 patients with STEMI were used (5 female, 12 male; aged 66.9 ± 13.6 years; troponin T, 3,398 ± 3,520 ng l^−1; creatine kinase, 933.4 ± 685.8 U l^−1; lactate dehydrogenase, 547.8 ± 259.9 U l^−1). Samples were analyzed 24 h after MI. Samples from the oral cavity of patients with pericoronitis (n = 6; 4 female, 2 male; 34.1 ± 21.7 years) and explanted human hearts (n = 3; 1 female, 2 male; 41.6 ± 18.2 years) were processed directly after surgery.
Blood was collected from the vena brachialis, and erythrocytes were lysed as described above. After 10 min of incubation, samples were centrifuged at 350g for 10 min at 20 °C. For isolation of a purified neutrophil fraction, density gradient centrifugation was performed. Five milliliters of Ficoll 1.077 (Sigma-Aldrich) was layered on 5 ml Ficoll 1.119 (Sigma-Aldrich), and 20 ml of whole blood diluted 1:2 with PBS was carefully layered on the Ficoll 1.077. Samples were centrifuged at 350g for 20 min with low acceleration and brake. The neutrophil layer was isolated by careful aspiration and washed with PBS. Isolated cells were resuspended in MACS buffer.
A total of 1 × 10^6 cells were incubated with 10 µl of the emulsion over a period of 80 min at 37 °C. At distinct time points, 50 µl of the samples were transferred into 2 ml of ice-cold MACS buffer and analyzed for rhodamine fluorescence by flow cytometry.

human neutrophils = assay: Migration of human neutrophils toward IL-8 (Boyden chamber); type: cell-based; settings: 50 µl hNPPFCs, 1 h, 37 °C; 100 ng ml^−1 IL-8
Description: A total of 1 × 10^6 isolated human neutrophils were incubated with or without 50 µl ^hNPPFCs for 1 h at 37 °C in 1 ml DMEM. After washing with DMEM, 1 × 10^5 of these cells were placed in a Boyden chamber containing 200 µl DMEM. The lower part of the chamber contained 100 ng ml^−1 IL-8 in 1 ml DMEM. After 1 h in an incubator, the flow through was collected, and the number of neutrophils was counted by flow cytometry. Murine neutrophils were isolated from Matrigel–LPS plugs and stained for Ly6G. Afterward, cells were washed twice, and the number of neutrophils was determined by flow cytometry.

Row | Substance | 19F signal of neutrophil cell pellet (19F MRI) (murine neutrophils) | fluorine signal (infarcted heart; cardiac 19F MRI after MI, paired with infarct size (correlation), panel A raw data, single animals) | cardiac 19F signal, Sham (infarcted heart; in vivo 19F MRI, Sham (substance not given), single animals) | cardiac 19F signal after MI (infarcted heart; in vivo 19F MRI, mice with MI, panel C raw data, single animals) | cardiac 19F signal, 1h (infarcted heart; time course after MI, 1h, panel B raw data, single animals #1-#6) | cardiac 19F signal, 3h (infarcted heart; time course after MI, 3h, single animals) | cardiac 19F signal, 6h (infarcted heart; time course after MI, 6h, single animals) | cardiac 19F signal, 24h (infarcted heart; time course after MI, 24h, single animals) | cardiac 19F signal, 48h (infarcted heart; time course after MI, 48h, single animals) | cardiac 19F signal, 72h (infarcted heart; time course after MI, 72h, single animals) | uptake by neutrophils, STEMI - hNPPFCs, raw data ([1]; STEMI patients, time 0, single samples #1-#5) | cellular uptake by neutrophils from patients with STEMI versus healthy volunteers ([1]; blood obtained within the first 24 h after MI, flow cytometry and 19F MRI) | migration of human neutrophils toward IL-8 (human neutrophils)
1 | mNPPFCs: PEGylated rhodamine-labeled perfluoro-15-crown-5 ether nanoemulsion (maleimide PFCs) coupled with murine neutrophil-specific peptide mNP (carboxyfluorescein-DFYKPMPNLRITGGGC([maleimide‑PEG2000‑DSPE-rhodamine‑labelled PEGylated perfluoro‑15‑crown‑5 ether nanoemulsion]); reading uncertain; also: printed as DFYKPMPNLRIT-GGG-C) | 349357 a.u. and 181876 a.u. and 297311 a.u. and 383564 a.u. and 306579 a.u. | 1143260.00 and 189700.00 and 404383.00 and 657147.00 and 1197310.00 and 718148.00 | 79451 and 78829 and 92374 and 48275 and 58581 and 66158 | 325890 and 570535 and 698329 and 580045 and 224755 and 325233 and 312147 and 344837 and 567674 and 107303 and 326458 and 189700 and 404383 and 657147 and 718148 | 153579.00 and 401063.98 and 321133.97 and 254881.37 and 314977.20 and 322448.95 | 445129.00 and 539772.19 and 408267.20 and 394516.08 and 617532.55 | 643519.00 and 466668.95 and 433563.34 and 788134.14 and 582620.85 | 1143260.00 and 608391.86 and 841920.06 and 1092840.00 and 1200290.00 and 913025.41 | 563325.00 and 546371.63 and 835937.39 and 937854.02 and 656412.62 | 589807.00 and 491276.01 and 1221090.00 and 1312800.00 and 804982.61 | – | – | –
2 | hNPPFCs: PEGylated rhodamine-labeled perfluorocarbon nanoemulsion coupled with human neutrophil-specific peptide hNP (carboxyfluorescein-DLVTSKLQVGGGC; also: C-terminal Cys coupled via maleimide-PEG2000-DSPE to rhodamine-labelled perfluorocarbon nanoemulsion) | – | – | – | – | – | – | – | – | – | – | 84.1 and 69.4 and 87.5 and 76.7 and 84.9 | substantially stronger cellular uptake | no evidence for any changes in their chemotactic properties
